Laboratory results from patent publication US7855073B2, “Cells containing a nanopatch sensor in their membrane” (Ben-Gurion University of the Negev Research and Development …, priority 2003, dated 2010).

What was measured:
[1] = tested on: cultured neuronal cells; assay: Detection of membrane perturbations, nanopatch-containing neuron cells; assay type: cell-based, rat; settings: 50 mM in medium; FIG. 7
Method: Cell cultures were prepared from the Hippocampi of one-day-old rat pups as follows. Tissue was treated for 30 min at 37° C. with 0.25% trypsin (type XI; Sigma), and then gently triturated and the dissociated cells were plated at a concentration of 2×10^5/ml onto poly-D-lysine ([…]; Sigma) and laminin ([…]; Collaborative Research)—coated glass coverslips. Cells were plated in Eagle's minimal essential medium (MEM) containing 10% heat-inactivated fetal bovine serum (HyClone), 2 mM glutamine, and 0.76% glucose. On the following day, the medium was replaced with fresh SF1C medium [Rayport, D. et al. (1992) J. Neurosci. 12, 4264-4280], including B-27 supplements (GIBCO). The cells were grown for up to 12 days in a humid incubator containing 5% CO2/95% air at 37° C. prior to use.
Cells were incubated with DMPE/DMPG/PDA-1:1:6 (mole ratio) vesicles in TG1 buffer (119 mM NaCl, 5 mM KCl, 30 mM Glucose, 32 mM Sucrose, 20 mM Hepes, pH=7.3) for 1 hour at room temperature. Following the fusion, vesicles were polymerized by UV irradiation at 254 nm for 10 seconds and the unbound vesicles were washed 3 times with TG1 buffer.
Fluorescent images of the cells were acquired using a Zeiss 200M microscope (Germany) fitted with a CY3 570-650 nm emission range filter (Chroma Technology Corp., Rockingham, Vt.) and CCD cooled camera (PCO). […]

[2] = tested on: CHO cells; assay: Detection of membrane perturbations, nanopatch-containing CHO cells; assay type: cell-based; settings: FIG. 10
Method: PDA nanopatch-containing CHO cells were prepared as described in Example 1, hereinabove, and treated with propranolol, a membrane-active pharmaceutical compound.

[3] = tested on: Erythrocyte "ghosts"; assay: Detection of membrane perturbations, nanopatch-containing erythrocyte ghosts; assay type: cell-based; settings: ghosts labeled with DMPC/PDA liposomes; FIG. 11
Method: Erythrocyte “ghosts” (i.e. emptied cells) were labeled with DMPC/PDA liposomes, following which the nanopatch-containing cells were treated with the membrane active compound melittin.

[4] = tested on: U937 cells; assay: Detection of membrane perturbations by fluorescence microscopy, nanopatch-containing U937 cells; assay type: cell-based, human
Method: U937 cells were grown and prepared as described in section 1.1 of Example 1, hereinabove. The precursors of the Lipid/PDA constructs (i.e. a mixture of 10,12-tricosadiynoic acid, PE and PG at a molar ratio of 8:1:1) were prepared and introduced into the cells in accordance with the methods described in sections 1.2 and 1.3 of Example 1.
Separate aliquots of cells containing the lipid/PDA constructs were then subjected to the membrane-perturbing treatments described below.
Transmission differential interference contrast (DIC) and fluorescence images of the cells were acquired on a laser scanning confocal microscope (Olympus IX70) with an PlApo 60× objective using oil (NA 1.4). Excitation was at 488 nm using argon laser source. Emitted light was collected through a LP 560 nm filter.

## [Ca+2] [calcium ions]
[1]
  Fluorescent emission from the red phase of the polydiacetylene polymer: white fluorescent light emitted by the cells

## CC(C)NCC(O)COc1cccc2ccccc12 (centres unmarked) [propranolol]
[2]
  Fluorescent emission associated with perturbation of the PDA-lipid constructs: characteristic fluorescent emission associated with perturbation of the PDA-lipid constructs embedded in the cell membrane is readily observed

## CC[C@H](C)[C@H](NC(=O)CN)C(=O)NCC(=O)N[C@@H](C)C(=O)N[C@H](C(=O)N[C@@H](CC(C)C)C(=O)N[C@@H](CCCCN)C(=O)N[C@H](C(=O)N[C@@H](CC(C)C)C(=O)N[C@H](C(=O)N[C@H](C(=O)NCC(=O)N[C@@H](CC(C)C)C(=O)N1CCC[C@H]1C(=O)N[C@@H](C)C(=O)N[C@@H](CC(C)C)C(=O)N[C@H](C(=O)N[C@@H](CO)C(=O)N[C@@H](Cc1c[nH]c2ccccc12)C(=O)N[C@H](C(=O)N[C@@H](CCCCN)C(=O)N[C@@H](CCCNC(=N)N)C(=O)N[C@@H](CCCCN)C(=O)N[C@@H](CCCNC(=N)N)C(=O)N[C@@H](CCC(N)=O)C(=O)N[C@@H](CCC(N)=O)C(N)=O)[C@@H](C)CC)[C@@H](C)CC)[C@@H](C)O)[C@@H](C)O)C(C)C)C(C)C [melittin]
[3]
  Fluorescence from transformed red PDA: fluorescence spots
[4]; 5 μM and 50 μM, FIG. 8 panels C, D
  Fluorescent emission of the lipid/PDA constructs (membrane perturbation): results in the characteristic fluorescent emission
[4]; 5 μM versus 50 μM, FIG. 8 panels C, D
  Dependence of fluorescent emission on dose: dose-dependent

## CCN(CC)CC(=O)Nc1c(C)cccc1C [lidocaine]
[4]; 5 μM, 25° C., 5 to 15 minutes, FIG. 5
  Fluorescent emission of the lipid/PDA constructs (membrane perturbation): characteristic fluorescent emission
[4]; 1 mM, FIG. 8 panel B
  Fluorescent emission of the lipid/PDA constructs (membrane perturbation): characteristic fluorescent emission associated with perturbation of the PDA construct is readily observed

## OC[C@H]1O[C@@](CO)(O[C@H]2O[C@H](CO)[C@@H](O)[C@H](O)[C@H]2O)[C@@H](O)[C@@H]1O [sucrose]
[4]; 1 M, 25° C., 5 to 15 minutes, FIG. 3
  Fluorescent emission of the lipid/PDA constructs (membrane perturbation): fluorescent emission
